Data: ChEMBL document CHEMBL6177952, “Exploring chloro-isoxazole compounds inspired on tetrahydrofuran neolignans as promising antileishmanial agents” (Eur J Med Chem, 2025)

Experiments:
Leishmania amazonensis [1] = assay: Antileishmanial activity against leishmania amazonensis IFLA/BR/1967/PH8 promastigotes infected in mouse Peritoneal macrophage incubated for 24 hrs; format: functional, organism-based; settings: IFLA/BR/1967/PH8, Peritoneal macrophage
[2] = Selectivity ratio of CC50 for cytotoxicity against BALB/c mouse Peritoneal macrophage assessed as inhibition of cell growth to IC50 for antileishmanial activity against leishmania amazonensis IFLA/BR/1967/PH8 promastigotes infected in mouse Peritoneal macrophage; format: toxicity, cell-based; settings: peritoneal macrophages, read-out: Ratio CC50/IC50
[3] = Selectivity ratio of CC50 for cytotoxicity against BALB/c mouse Peritoneal macrophage assessed as inhibition of cell growth to IC50 for antileishmanial activity against leishmania amazonensis IFLA/BR/1967/PH8 intracellular amastigote infected in mouse Peritoneal macrophage; format: toxicity, cell-based; settings: peritoneal macrophages, read-out: Ratio CC50/IC50
[4] = Cytotoxicity against BALB/c mouse Peritoneal macrophage assessed as inhibition of cell growth incubated for 48 hrs by MTT assay; format: toxicity, cell-based; settings: peritoneal macrophages
Leishmania amazonensis [5] = assay: Antileishmanial activity against leishmania amazonensis IFLA/BR/1967/PH8 intracellular amastigote infected in mouse Peritoneal macrophage incubated for 24 hrs; format: functional, organism-based; settings: IFLA/BR/1967/PH8, Peritoneal macrophage
Leishmania amazonensis [6] = assay: Antiparasitic activity against Leishmania amazonensis promastigotes incubated for 24 hrs; format: functional, organism-based
Leishmania amazonensis [7] = assay: Potency index, ratio of pentamidine IC50 to test compound IC50 for antileishmanial activity against leishmania amazonensis IFLA/BR/1967/PH8 intracellular amastigote infected in mouse Peritoneal macrophage incubated for 24 hrs; format: functional
[8] = Mutagenicity in Salmonella typhimurium TA98 assessed as number of revertant colonies per plate at 10 microg/ml by Ames test; format: toxicity; settings: salmonella enterica subsp. enterica serovar typhimurium; dose 10 µg/ml
Leishmania amazonensis [9] = assay: Antileishmanial activity against leishmania amazonensis IFLA/BR/1967/PH8 promastigotes assessed as reduction in parasite growth measured for 72 hrs; format: functional, organism-based; settings: IFLA/BR/1967/PH8, 72 h
Leishmania amazonensis [10] = assay: Antileishmanial activity against Leishmania amazonensis promastigotes; format: functional, organism-based
Leishmania amazonensis [11] = assay: Antileishmanial activity against leishmania amazonensis infected in BALB/c mouse assessed as reduction parasite load in footpad; format: functional; set-up: scale not given: the % may be the effect or the level left
Leishmania amazonensis [12] = assay: Antileishmanial activity against leishmania amazonensis assessed as reduction in parasite growth; format: functional, organism-based
Leishmania amazonensis [13] = assay: Antileishmanial activity against leishmania amazonensis IFLA/BR/1967/PH8 amastigote measured for 72 hrs; format: functional, organism-based; settings: IFLA/BR/1967/PH8, 72 h
[14] = Mutagenicity in Salmonella typhimurium TA98 assessed as number of revertant colonies per plate at 2.5 microg/ml in presence of S9 fraction by Ames test; format: toxicity, subcellular; settings: salmonella enterica subsp. enterica serovar typhimurium, dose 2.5 µg/ml
[15] = Mutagenicity in Salmonella typhimurium TA100 assessed as number of revertant colonies per plate at 2.5 microg/ml in presence of S9 fraction by Ames test; format: toxicity, subcellular; settings: salmonella enterica subsp. enterica serovar typhimurium, dose 2.5 µg/ml
Leishmania amazonensis [16] = assay: Antileishmanial activity against leishmania amazonensis IFLA/BR/1967/PH8 intracellular amastigotes infected in mouse Peritoneal macrophage assessed as reduction in parasite growth measured for 24 hrs; format: functional, organism-based; settings: IFLA/BR/1967/PH8, Peritoneal macrophage
Leishmania amazonensis [17] = assay: Antileishmanial activity against Leishmania amazonensis promastigotes assessed as necrotic parasites at 10.4 uM incubated for 48 hrs by Annexin V/7-AAD staining based flow cytometry analysis relative to control; format: functional
Leishmania amazonensis [18] = assay: Antileishmanial activity against Leishmania amazonensis promastigotes assessed as early apoptotic parasites at 10.4 uM incubated for 48 hrs by Annexin V/7-AAD staining based flow cytometry analysis relative to control; format: functional
Leishmania amazonensis [19] = assay: Antileishmanial activity against Leishmania amazonensis promastigotes assessed as late apoptotic parasites at 10.4 uM incubated for 24 hrs by Annexin V/7-AAD staining based flow cytometry analysis relative to control; format: functional
Leishmania amazonensis [20] = assay: Antileishmanial activity against Leishmania amazonensis promastigotes assessed as late apoptotic parasites at 10.4 uM incubated for 72 hrs by Annexin V/7-AAD staining based flow cytometry analysis relative to control; format: functional
Leishmania amazonensis [21] = assay: Antileishmanial activity against Leishmania amazonensis promastigotes assessed as viable apoptotic parasites at 10.4 uM incubated for 24 hrs by Annexin V/7-AAD staining based flow cytometry analysis relative to control; format: functional
Leishmania amazonensis [22] = assay: Antileishmanial activity against Leishmania amazonensis promastigotes assessed as necrotic parasites at 10.4 uM incubated for 24 hrs by Annexin V/7-AAD staining based flow cytometry analysis relative to control; format: functional
Leishmania amazonensis [23] = assay: Antileishmanial activity against Leishmania amazonensis promastigotes assessed as late apoptotic parasites at 10.4 uM incubated for 48 hrs by Annexin V/7-AAD staining based flow cytometry analysis relative to control; format: functional
Leishmania amazonensis [24] = assay: Antileishmanial activity against Leishmania amazonensis promastigotes assessed as viable apoptotic parasites at 10.4 uM incubated for 48 hrs by Annexin V/7-AAD staining based flow cytometry analysis relative to control; format: functional
Leishmania amazonensis [25] = assay: Antileishmanial activity against Leishmania amazonensis promastigotes assessed as necrotic parasites at 10.4 uM incubated for 72 hrs by Annexin V/7-AAD staining based flow cytometry analysis relative to control; format: functional
Leishmania amazonensis [26] = assay: Antileishmanial activity against Leishmania amazonensis promastigotes assessed as viable apoptotic parasites at 10.4 uM incubated for 72 hrs by Annexin V/7-AAD staining based flow cytometry analysis relative to control; format: functional
Leishmania amazonensis [27] = assay: Antileishmanial activity against Leishmania amazonensis promastigotes assessed as early apoptotic parasites at 10.4 uM incubated for 72 hrs by Annexin V/7-AAD staining based flow cytometry analysis relative to control; format: functional
Leishmania amazonensis [28] = assay: Antileishmanial activity against Leishmania amazonensis promastigotes assessed as early apoptotic parasites at 10.4 uM incubated for 24 hrs by Annexin V/7-AAD staining based flow cytometry analysis relative to control; format: functional

Structure (SMILES) | IC50 (Leishmania amazonensis [1]) [µM] | IC50 (Leishmania amazonensis [5]) [µM] | selectivity ratio [2] | selectivity ratio [3] | CC50 at 48 h [4] [µM] | also measured
N=C(N)c1ccc(OCCCCCOc2ccc(C(=N)N)cc2)cc1 [PENTAMIDINE] | 1.3 | 16.3 | 17.8 | 1.4 | 23.2 | 
COc1cc(-c2cn(-c3cc(OC)c(OC)c(OC)c3)nn2)cc(OC)c1OC |  |  |  |  |  | IC50 (Leishmania amazonensis [6]): > 200 µM
COc1ccc(-c2cc(-c3cc(OC)c(OC)c(OC)c3Cl)on2)cc1 | 45.8 | 12.5 | 1.3 | 4.9 | 60.7 | 
COc1cc(-c2cc(-c3ccc4c(c3)OCO4)no2)c(Cl)c(OC)c1OC | 103 | 10.3 | 0.3 | 3.3 | 33.7 | Ratio IC50 (Leishmania amazonensis [7]): <=7
COc1cccc2c1C(=O)c1c(O)c3c(c(O)c1C2=O)C[C@@](O)(C(=O)CO)C[C@@H]3O[C@H]1C[C@H](N)[C@H](O)[C@H](C)O1 [DOXORUBICIN] |  |  |  |  | 2.4 | 
Nc1ccc([N+](=O)[O-])cc1N |  |  |  |  |  | Activity [8]: 253 µg
COc1ccc(-c2cc(-c3cc(OC)c(OC)c(OC)c3Cl)no2)cc1 | 9 | 10.9 | 1 | 0.8 | 9.6 | 
COc1cc(-n2cc(-c3ccc4c(c3)OCO4)nn2)cc(OC)c1OC | 12 | 23.4 | 1.9 | 1 | 23.5 | IC50 (Leishmania amazonensis [9]): 7.2 µM
COc1ccc(-c2cc(-c3cc(OC)c(OC)c(OC)c3)no2)cc1OC |  |  |  |  |  | IC50 (Leishmania amazonensis [10]): 19.4 µM
COc1ccc(-c2cn(-c3cc(OC)c(OC)c(OC)c3)nn2)cc1OC |  |  |  |  |  | IC50 (Leishmania amazonensis [10]): 194 µM
COc1cc(-c2cc(-c3cc(OC)c(OC)c(OC)c3)on2)cc(OC)c1OC |  |  |  |  |  | IC50 (Leishmania amazonensis [6]): 17.6 µM
COc1cc(-c2cc(-c3ccc4c(c3)OCO4)no2)cc(OC)c1OC |  |  |  |  |  | IC50 (Leishmania amazonensis [13]): 3.3 µM
Nc1ccc2cc3ccccc3cc2c1 [2-AMINOANTHRACENE] |  |  |  |  |  | Activity [14]: 231 revertants/plate; revertant count [15]: 963 revertants/plate
COc1ccc(-n2cc(-c3cc(OC)c(OC)c(OC)c3)nn2)cc1OC |  |  |  |  |  | IC50 (Leishmania amazonensis [16]): 122 µM; IC50 (Leishmania amazonensis [10]): 122 µM
C[C@@H]1[C@H](O)[C@@H](C)/C=C/C=C/C=C/C=C/C=C/C=C/C=C/[C@H](O[C@@H]2O[C@H](C)[C@@H](O)[C@H](N)[C@@H]2O)C[C@@H]2O[C@](O)(C[C@@H](O)C[C@@H](O)[C@H](O)CC[C@@H](O)C[C@@H](O)CC(=O)O[C@H]1C)C[C@H](O)[C@H]2C(=O)O [AMPHOTERICIN B] | 10.4 | 2 |  |  | 12.8 | Activity (Leishmania amazonensis [17]): 0.6%; Activity (Leishmania amazonensis [18]): 1.6%; Activity (Leishmania amazonensis [19]): 0.3%; Activity (Leishmania amazonensis [20]): 1.5%; Activity (Leishmania amazonensis [21]): 98.7%; Activity (Leishmania amazonensis [22]): 0.3%; Activity (Leishmania amazonensis [23]): 0.6%; Activity (Leishmania amazonensis [24]): 97.1%; Activity (Leishmania amazonensis [25]): 2.5%; Activity (Leishmania amazonensis [26]): 95.1%; Activity (Leishmania amazonensis [27]): 0.8%; Activity (Leishmania amazonensis [28]): 0.6%

Continued, in another order:

IC50 (Leishmania amazonensis [1]) [µM] | IC50 (Leishmania amazonensis [5]) [µM] | Structure (SMILES) | selectivity ratio [2] | selectivity ratio [3] | CC50 at 48 h [4] [µM] | also measured
88 | 31.7 | COc1ccc(-c2cc(-c3cc(OC)c(OC)c(OC)c3Cl)no2)cc1OC | 0.3 | 0.8 | 26.7 | 
71.5 | 19.3 | COc1cc(OC)cc(-c2cc(-c3cc(OC)c(OC)c(OC)c3Cl)no2)c1 | 0.4 | 1.5 | 28 | 
91.8 | 11.4 | COc1ccc(-c2cc(-c3cc(OC)c(OC)c(OC)c3Cl)on2)cc1OC | 0.5 | 4.1 | 47.2 | 
 | 1.6 | COc1ccc(-c2cc(-c3cc(OC)c(OC)c(OC)c3)on2)cc1OC |  | 21 |  | Activity (Leishmania amazonensis [11]): 98.5%; IC50 (Leishmania amazonensis [12]): 20.2 µM
74.4 | 21.8 | COc1cc(-c2cc(-c3cc(OC)c(OC)c(OC)c3Cl)no2)cc(OC)c1OC | 0.1 | 0.3 | 7 | 
33.8 | 12.7 | COc1cc(-c2cc(-c3cc(OC)c(OC)c(OC)c3Cl)on2)cc(OC)c1OC | 0.07 | 0.2 | 2.7 | 
31.2 | 7.3 | COc1cc(OC)cc(-c2cc(-c3cc(OC)c(OC)c(OC)c3Cl)on2)c1 | 2.6 | 11.3 | 82.6 | 
